Experimental data from US9113629B2, “4-amino-6-(4-substituted-phenyl)-picolinates and 6-amino-2-(4-substituted-phenyl)-pyrimidine-4-carboxylates and their use as herbicides” (DOW AGROSCIENCES LLC, priority 2013, dated 2015).
Read-outs that look alike come from different tables or passages of the source.

Assays:
[1] = tested on: Key Broadleaf Weed and Crop Species; experiment: Post-emergent Test II herbicidal activity (Table 5); assay type: in vivo; conditions: post-emergence, 336 h, 14 days after application; for pest or weed control at 70 g/ha: application rate 70 g ai/ha; for pest or weed control at 140 g/ha: application rate 140 g ai/ha
Summary of the method: (§1)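 Injury was rated visually 14 d after treatment on a 0–100% scale against untreated controls. Test compounds, formulated with crop oil concentrate and surfactant and serially diluted down to 1/16× of the top rate, were applied by track sprayer at 187 L/ha onto first- to second-true-leaf seedlings.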

[2] = tested on: Key Grass and Sedge Weeds as well as Grass Crops; experiment: Post-emergent Test II herbicidal activity (Table 6); assay type: in vivo; conditions: post-emergence, 336 h; for pest or weed control at 70 g/ha: 70 g ai/ha; for pest or weed control at 140 g/ha: 140 g ai/ha
Summary of the method: as §1

[3] = ABUTH: velvetleaf (Abutilon theophrasti), read-out: Visual Growth Reduction (%) 14 Days After Application, ABUTH
[4] = AMARE: redroot pigweed (Amaranthus retroflexus), read-out: Visual Growth Reduction (%) 14 Days After Application, AMARE
[5] = BRSNN: oilseed-rape, canola (Brassica napus), read-out: Visual Growth Reduction (%) 14 Days After Application, BRSNN
[6] = CHEAL: lambsquarters (Chenopodium album), read-out: Visual Growth Reduction (%) 14 Days After Application, CHEAL
[7] = EPHHL: wild poinsettia (Euphorbia heterophylla), read-out: Visual Growth Reduction (%) 14 Days After Application, EPHHL
[8] = HELAN: sunflower (Helianthus annuus), read-out: Visual Growth Reduction (%) 14 Days After Application, HELAN
[9] = VIOTR: wild pansy (Viola tricolor), read-out: Visual Growth Reduction (%) 14 Days After Application, VIOTR
[10] = CYPES: yellow nutsedge (Cyperus esculentus), read-out: Visual Growth Reduction (%) 14 Days After Application, CYPES
[11] = DIGSA: crabgrass (Digitaria sanguinalis), read-out: Visual Growth Reduction (%) 14 Days After Application, DIGSA
[12] = ECHCG: barnyardgrass (Echinochloa crus-galli), read-out: Visual Growth Reduction (%) 14 Days After Application, ECHCG
[13] = ORYSA: rice (Oryza sativa), crop, read-out: Visual Growth Reduction (%) 14 Days After Application, ORYSA
[14] = SETFA: giant foxtail (Setaria faberi), read-out: Visual Growth Reduction (%) 14 Days After Application, SETFA
[15] = SORVU: grain sorghum (Sorghum vulgare), read-out: Visual Growth Reduction (%) 14 Days After Application, SORVU
[16] = TRZSS (wheat, Triticum aestivum), crop, read-out: Visual Growth Reduction (%) 14 Days After Application, TRZSS
[17] = ZEAMX: maize, corn (Zea mays), crop, read-out: Visual Growth Reduction (%) 14 Days After Application, ZEAMX

melting point: 133 to 135 °C
SMILES: COC(=O)c1nc(-c2ccc(C(F)(F)F)c(F)c2)c(F)c(N)c1Cl [Compound 165]
pest or weed control at 70 g/ha [1, 3]: 85 to 94% | pest or weed control at 140 g/ha [1, 3]: 95 to 100% | pest or weed control at 70 g/ha [1, 4]: 85 to 94% | pest or weed control at 140 g/ha [1, 4]: 85 to 94% | pest or weed control at 70 g/ha [1, 5]: 75 to 84% | pest or weed control at 140 g/ha [1, 5]: 85 to 94% | pest or weed control at 70 g/ha [1, 6]: 95 to 100% | pest or weed control at 140 g/ha [1, 6]: 95 to 100% | pest or weed control at 70 g/ha [1, 7]: 95 to 100% | pest or weed control at 140 g/ha [1, 7]: 95 to 100% | pest or weed control at 70 g/ha [1, 8]: 95 to 100% | pest or weed control at 140 g/ha [1, 8]: 95 to 100% | pest or weed control at 70 g/ha [1, 9]: 45 to 59% | pest or weed control at 140 g/ha [1, 9]: 95 to 100% | pest or weed control at 70 g/ha [2, 10]: 95 to 100% | pest or weed control at 140 g/ha [2, 10]: 95 to 100% | pest or weed control at 70 g/ha [2, 11]: 60 to 74% | pest or weed control at 140 g/ha [2, 11]: 60 to 74% | pest or weed control at 70 g/ha [2, 12]: 85 to 94% | pest or weed control at 140 g/ha [2, 12]: 95 to 100% | pest or weed control at 70 g/ha [2, 13]: 0 to 29% | pest or weed control at 140 g/ha [2, 13]: 0 to 29% | pest or weed control at 70 g/ha [2, 14]: 60 to 74% | pest or weed control at 140 g/ha [2, 14]: 85 to 94% | pest or weed control at 70 g/ha [2, 15]: 60 to 74% | pest or weed control at 140 g/ha [2, 15]: 60 to 74% | pest or weed control at 70 g/ha [2, 16]: 45 to 59% | pest or weed control at 140 g/ha [2, 16]: 45 to 59% | pest or weed control at 70 g/ha [2, 17]: 75 to 84% | pest or weed control at 140 g/ha [2, 17]: 95 to 100%
